Data set [1] concerns the target T1, Dual specificity mitogen-activated protein kinase kinase 1 (Homo sapiens, UniProt Q02750). Nature of the data set: Inhibition of full-length human MEK1 by TR-FRET assay. In general terms: TR-FRET usually uses a lanthanide donor and a delayed reading to cut background.
A short description of data set [2]: Inhibition of ERK phosphorylation in human A-375 cells incubated for 3 hrs by DELFIA assay. It counts as cell-based. Particulars: A-375, 3 h.
Data set [3] can be described thus: Octanol-water partition coefficient, logP of the compound by LC-MS analysis. The format is physicochemical.
Data set [4] is described as follows: Dissociation constant, pKa of compound. It counts as physicochemical.
The nature of data set [5]: Permeability in PBS at pH 6.8 incubated for 5 hrs by PAMPA method. The format is ADME. Particulars: pH 6.8, 5 h.
The nature of data set [6]: Solubility of compound in water at pH 6.8 by shake flask method based HPLC/UV analysis. The format is physicochemical.
Data set [7] in a line: Clearance in Wistar rat at 3 mg/kg, iv measured up to 24 hrs by LC-MS/MS analysis. The format is ADME, organism-based. Particulars: in vivo.
In data set [8] the target is Cytochrome P450 3A4 (Homo sapiens, UniProt P08684). Nature of the data set: Inhibition of CYP3A4 (unknown origin). The format is ADME.
Chain of Cytochrome P450 3A4 (P08684 whole entry): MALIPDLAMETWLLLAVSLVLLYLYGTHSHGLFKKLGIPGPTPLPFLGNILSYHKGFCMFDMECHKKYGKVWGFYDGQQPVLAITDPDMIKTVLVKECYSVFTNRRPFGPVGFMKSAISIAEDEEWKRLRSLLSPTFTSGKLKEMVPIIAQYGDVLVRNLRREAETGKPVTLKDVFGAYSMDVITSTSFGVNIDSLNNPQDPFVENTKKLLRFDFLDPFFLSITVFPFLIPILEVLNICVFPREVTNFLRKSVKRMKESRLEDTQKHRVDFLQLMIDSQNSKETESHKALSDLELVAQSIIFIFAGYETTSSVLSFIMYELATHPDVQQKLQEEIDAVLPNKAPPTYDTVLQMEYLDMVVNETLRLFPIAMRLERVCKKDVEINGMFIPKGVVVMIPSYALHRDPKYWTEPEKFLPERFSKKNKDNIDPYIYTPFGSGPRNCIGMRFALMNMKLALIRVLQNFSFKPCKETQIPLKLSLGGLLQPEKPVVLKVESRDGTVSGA
Data set [9] in a line: Oral bioavailability in Wistar rat at 10 mg/kg measured up to 24 hrs by LC-MS/MS analysis. The format is ADME, organism-based. Particulars: Wistar, in vivo.
Data set [10] addresses T1, Dual specificity mitogen-activated protein kinase kinase 1. Particulars: time 120.0 min.
In data set [11] the test system is A-375. The experiment in a line: Antitumor activity against human A-375 cells xenografted in CD1 mouse assessed as tumor growth inhibition at 30 mg/kg bid via oral gavage. Particulars: A-375, po, read-out: TGI. It counts as functional.
The nature of data set [12]: Protein binding in human plasma assessed as free fraction. It counts as ADME, cell-free.
Data set [13] can be described thus: Solubility of compound in FaSSIF at pH 6.8 by shake flask method based HPLC/UV analysis. The format is physicochemical.
A short description of data set [14]: Clearence in CD-1 mouse at 3 mg/kg, iv. Particulars: in vivo. The format is ADME, organism-based.

In brackets after ≈: the same amount, converted by molar mass.

T1 sequence (Q02750 whole entry): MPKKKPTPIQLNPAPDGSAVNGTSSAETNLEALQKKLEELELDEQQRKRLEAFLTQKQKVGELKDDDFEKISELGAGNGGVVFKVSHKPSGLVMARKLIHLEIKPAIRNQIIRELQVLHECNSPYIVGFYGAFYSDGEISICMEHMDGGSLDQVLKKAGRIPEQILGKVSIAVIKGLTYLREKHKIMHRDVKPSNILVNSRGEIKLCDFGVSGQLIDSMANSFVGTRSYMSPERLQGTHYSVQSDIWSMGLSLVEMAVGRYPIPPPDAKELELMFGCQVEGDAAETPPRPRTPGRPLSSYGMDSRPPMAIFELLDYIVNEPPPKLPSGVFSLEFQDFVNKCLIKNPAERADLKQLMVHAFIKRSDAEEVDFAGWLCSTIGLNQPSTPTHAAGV

`N#CCc1ccc(-n2cnc3cnc4cc(F)c(-c5ccc6[nH]ccc6c5)cc4c32)cc1`: in [1], the IC50 was 2600 nM. For the same compound, in [2], the EC50 was 5.8 µM.
Take `OCCN1CCC(n2cnc3cnc4cc(F)c(-c5ccc(Oc6ccccn6)cc5Cl)cc4c32)CC1`: in [3], the logP was 4.6. For the same compound, in [4], the pKa was found to be 6.9. Besides, in data set [5], the “log(permeability)” value is recorded as -4.4. Besides, the solubility (thermodynamic) in [6] was found to be 67 µM (≈ 34.7 µg/mL).
In the case of `N#CCc1ccc(-n2cnc3cnc4cc(F)c(-c5ccc(Oc6ccccn6)cc5Cl)cc4c32)cc1`, the clearance in data set [7] stood at 8 mL/min/kg. The compound also registered an IC50 in [8] of under 0.5 µM. Besides, the bioavailability in data set [9] turned out to be 5%. Further, in data set [2], the EC50 amounted to 3 µM.
Take `CC(=O)Nc1cccc(-n2c(=O)n(C3CC3)c(=O)c3c(Nc4ccc(I)cc4F)n(C)c(=O)c(C)c32)c1`: the T1/2 in data set [10] turned out to be 25 min.
The compound `Cc1cc(Oc2ncccn2)ccc1-c1cc2c(cc1F)ncc1nc(C)n([C@H]3CCN(C(=O)CO)C[C@@H]3F)c12` gave a 50% inhibitory concentration (IC50) in [8] of over 20 µM. The logP in [3] is 2. For the same compound, in data set [2], it took 19 µM to reach a half-maximal effect (EC50).
Compound `COc1cc(Oc2ccccn2)ccc1-c1cc2c(cc1F)ncc1ncn(C3CCN(CC#N)CC3)c12` displayed a log partition coefficient (logP) in data set [3] of 5.3. Also, the “log(permeability)” value in data set [5] is -4.2.
On to `Cc1nc2cnc3cc(F)c(-c4ccc(Oc5ncccn5)cc4Cl)cc3c2n1C1CCN(C(=O)CO)CC1`, for which the inhibition in vivo at 30 mg/kg in [11] was 41%. This compound displayed a clearance in data set [7] of 34 mL/min/kg. Further, the midpoint of inhibition in data set [8], the IC50, lay at 11 µM. For the same compound, the bioavailability in data set [9] is 37%. In data set [3], this compound had a logP of 2. For the same compound, the fraction unbound in data set [12] was 0.05. The same compound gave an EC50 in data set [2] of 50 µM.
For `CC(O)c1nc2cnc3cc(F)c(-c4ccc(Oc5ccccn5)cc4Cl)cc3c2n1C1CCN(CC#N)CC1` (configuration not stated), the thermodynamic solubility in data set [13] was 22 µM (≈ 12.3 µg/mL); in data set [6] it was under 4 µM. Moreover, the “log(permeability)” value in data set [5] is recorded as -4.7.
For the compound `N#CC[C@]1(N)CC[C@@H](n2cnc3cnc4cc(F)c(-c5ccc(Oc6ncccn6)cc5Cl)cc4c32)CC1`, the half-maximal inhibitory concentration (IC50) in data set [8] was 5.7 µM. In addition, the lipophilicity (logP) in [3] was 5.7.
`Fc1cc2ncc3ncn(C4CCNCC4)c3c2cc1-c1ccc(Oc2ccccn2)cc1Cl` showed a log partition coefficient (logP) in data set [3] of 4.8. In addition, the pKa in data set [4] was 8.4. Moreover, the “log(permeability)” value in [5] is listed as -4.5. Moreover, in data set [6], the solubility (thermodynamic) stood at 47 µM (≈ 22.3 µg/mL).
In [3], `COc1cc(Oc2ncccn2)ccc1-c1cc2c(cc1F)ncc1nc(C(C)O)n(C3CCN(CC#N)CC3)c12` (configuration not stated) yielded a logP of 3.2. In addition, the thermodynamic solubility in data set [13] worked out at 42 µM (≈ 23.3 µg/mL); in data set [6], 31 µM (≈ 17.2 µg/mL). Further, in data set [5], the “log(permeability)” value is given as -6.9.
In the case of `N#CCN1CCC(n2cnc3cnc4cc(F)c(-c5ccc(Oc6ccccn6)cc5Cl)cc4c32)CC1`, the half-inhibitory concentration (IC50) in [1] is 70 nM. In addition, in data set [3], the logP was 5.3. The compound further returned a pKa in data set [4] of 4.1. Moreover, in data set [2], the concentration giving a half-maximal response (EC50) came to 0.4 µM. For the same compound, the “log(permeability)” value in [5] is listed as -4.2.
In data set [8], `O=C(CO)N1CC[C@H](n2cnc3cnc4cc(F)c(-c5ccc(Oc6ncccn6)cc5Cl)cc4c32)[C@@H](F)C1` had an IC50 of over 20 µM. Further, in [3], the logP came to 2.3.
Turning to `CC1(n2cnc3cnc4cc(F)c(-c5ccc(Oc6ncccn6)cc5Cl)cc4c32)CCN(CC#N)CC1`, the IC50 in data set [8] was 1.5 µM; in [2], 80 nM. For the same compound, the logP in [3] was 4.2. Besides, in [14], the clearance is 35 mL/min/kg.
Compound `Cc1nc2cnc3cc(F)c(-c4ccc(Oc5ncccn5)cc4Cl)cc3c2n1[C@H]1CC[C@@](N)(CC#N)CC1` yielded an IC50 in data set [8] of 1.2 µM. Besides, in data set [3], the logP turned out to be 1.2.
Regarding `COc1cc(Oc2ccccn2)ccc1-c1cc2c(cc1F)ncc1nc(C)n(C3CCN(CC#N)CC3)c12`, the logP in data set [3] came out at 4.6. In addition, the thermodynamic solubility in [13] is 22 µM (≈ 11.5 µg/mL); in data set [6], under 4 µM. For the same compound, in [5], the “log(permeability)” value is listed as -3.9.
For `COc1cc(Oc2ccccn2)ccc1-c1cc2c(cc1F)ncc1nc(CO)n(C3CCN(CC#N)CC3)c12`, in data set [3], the log partition coefficient (logP) is 4.4. In addition, the solubility (thermodynamic) in [13] is 7 µM (≈ 3.77 µg/mL); in data set [6] it was under 4 µM. Besides, the “log(permeability)” value in [5] is -5.
For `COc1cc(Oc2ccccn2)ccc1-c1cc2c(cc1F)ncc1nc(C(C)O)n(C3CCN(CC#N)CC3)c12` (configuration not stated) the same measures were 4.4, 9 µM (≈ 4.97 µg/mL), under 4 µM and -4.6.
Take `Cc1ccnc(Oc2ccc(-c3cc4c(cc3F)ncc3nc(C)n([C@H]5CCN(C(=O)CO)C[C@@H]5F)c34)c(Cl)c2)n1`: in [8], the concentration for half-maximal inhibition (IC50) was 2 µM. This compound showed a logP in data set [3] of 2.6. In addition, the response in data set [2] was half-maximal at 7 µM (EC50).
Take `N#CCN1CCC(n2c(CO)nc3cnc4cc(F)c(-c5ccc(Oc6ccccn6)cc5Cl)cc4c32)CC1`: in [3], the lipophilicity (logP) amounted to 4.9. Besides, the solubility (thermodynamic) in data set [13] and in data set [6] was under 4 µM each time. In data set [5], the “log(permeability)” value is recorded as -4.5.
In turn, `N#CCN1CCN(n2cnc3cnc4cc(F)c(-c5ccc(Oc6ncccn6)cc5Cl)cc4c32)CC1` came in with a lipophilicity (logP) in data set [3] of 3.2. In data set [2], this compound showed a concentration for half-maximal inhibition (IC50) of 120 nM.
In the case of `N#CCN1CCC(n2cnc3cnc4cc(F)c(-c5ccc(Oc6ncccn6)cc5Cl)cc4c32)CC1`, in data set [3], the logP amounted to 3. For the same compound, the “log(permeability)” value in data set [5] was -4.5.
`Cc1nc2cnc3cc(F)c(-c4ccc(Oc5ncccn5)cc4Cl)cc3c2n1C1CCN(CC#N)CC1` showed a clearance in [7] of 16 mL/min/kg. Further, the IC50 in data set [8] came out at 1.6 µM; in data set [2], 60 nM. Also, in data set [9], the bioavailability came to 0%. Further, the logP in data set [3] amounted to 3.3. Moreover, the solubility (thermodynamic) was determined as 106 µM (≈ 56 µg/mL) in [13] and 11 µM (≈ 5.81 µg/mL) in [6]. In addition, the “log(permeability)” value in data set [5] is reported as -4.7.
Turning to `CC1(n2cnc3cnc4cc(F)c(-c5ccc(Oc6ncccn6)cc5Cl)cc4c32)CCC(CC#N)CC1` (configuration not stated), the half-inhibitory concentration (IC50) in [8] is under 0.5 µM. The lipophilicity (logP) in [3] was found to be 4.6. Also, the clearance in data set [14] was 6 mL/min/kg.
`COCC(=O)N1CC[C@H](n2c(C)nc3cnc4cc(F)c(-c5ccc(Oc6ncccn6)cc5Cl)cc4c32)[C@@H](F)C1` registered a concentration for half-maximal inhibition (IC50) in data set [8] of 5 µM. The same compound showed a logP in [3] of 3.2.
Consider `Cc1nc2cnc3cc(F)c(-c4ccc(Oc5ncccn5)cc4Cl)cc3c2n1[C@H]1CC[C@](N)(CC#N)CC1`, for which 12.1 µM corresponded to half-maximal inhibition in data set [8] (IC50).
On to `CC(O)c1nc2cnc3cc(F)c(-c4ccc(Oc5ncccn5)cc4Cl)cc3c2n1C1CCN(CC#N)CC1` (configuration not stated), for which the thermodynamic solubility in data set [13] is 22 µM (≈ 12.3 µg/mL); in data set [6], under 4 µM. Also, the “log(permeability)” value in data set [5] is -4.7.
For `COc1cc(Oc2ncccn2)ccc1-c1cc2c(cc1F)ncc1nc(C)n(C3CCN(CC#N)CC3)c12`, the logP in data set [3] was found to be 2.3. Besides, the solubility (thermodynamic) worked out at 221 µM (≈ 116 µg/mL) in data set [13] and 33 µM (≈ 17.3 µg/mL) in [6]. Also, the “log(permeability)” value in data set [5] is reported as -4.5.
In data set [2], `CC(=O)N1CC[C@H](n2c(C)nc3cnc4cc(F)c(-c5ccc(Oc6ncccn6)cc5Cl)cc4c32)[C@@H](F)C1` displayed an EC50 of 64 µM.
`Cc1nc2cnc3cc(F)c(-c4ccc(Oc5ccccn5)cc4Cl)cc3c2n1C1CCN(CC#N)CC1`: the log partition coefficient (logP) in data set [3] amounted to 5.1. The results for the thermodynamic solubility in data set [13] and in data set [6] were 175 µM (≈ 92.2 µg/mL) and under 4 µM, respectively. In data set [5], the “log(permeability)” value is reported as -4.1.
`N#CCN1CCC(n2c(CO)nc3cnc4cc(F)c(-c5ccc(Oc6ncccn6)cc5Cl)cc4c32)CC1` came in with a lipophilicity (logP) in data set [3] of 3.5. Further, the values for the solubility (thermodynamic) in [13] and in data set [6] were 6 µM (≈ 3.26 µg/mL) and 12 µM (≈ 6.53 µg/mL), respectively. Also, the “log(permeability)” value in [5] is given as -5.3.

Usually IC50 stands for the point on the concentration scale where inhibition reaches its midpoint. A low value points to higher potency. As usually defined, the EC50 is the concentration that produces a half-maximal response. As a reminder, the logP is a log measure of how a compound divides between an organic and an aqueous phase. The low end stands for a more hydrophilic compound, the high end for a more lipophilic compound. For orientation: pKa means the pH at which an ionisable group is half protonated. The low end stands for a group that gives up its proton readily, the high end for a group that holds its proton tightly. A word on the solubility (thermodynamic): it is the concentration in solution at equilibrium with solid. By clearance is commonly meant the rate of elimination divided by the concentration. Read a low clearance as inefficient removal. As usually defined, the bioavailability is dose-corrected exposure relative to a reference, in per cent. Low readings indicate poor availability, high ones good availability. Broadly, the fraction unbound is the share of the substance not bound to proteins or other matrix.
